Source: ChEMBL document CHEMBL3352338, “Development and biological evaluation of potent and selective c-KIT(D816V) inhibitors” (J Med Chem, 2014)
The source made the active and inactive calls. The rule behind the calls is not given here.

Key:
[1] = molecular target: T1, Mast/stem cell growth factor receptor Kit (Homo sapiens, UniProt P10721); assay: Inhibition of c-KIT (unknown origin) at 1 uM by KINOMEscanning/auto inhibition assay; values are per cent of control
[2] = molecular target: Calcium/calmodulin-dependent protein kinase type 1 (Homo sapiens) (UniProt Q14012); assay: Inhibition of CAMK1 (unknown origin) at 1 uM by KINOMEscanning assay relative to control; values are per cent of control
[3] = molecular target: T1, Mast/stem cell growth factor receptor Kit; assay: Inhibition of c-KIT (unknown origin) at 1 uM by KINOMEscanning assay relative to control; values are per cent of control
[4] = molecular target: Mitogen-activated protein kinase 3 (Homo sapiens) (UniProt P27361); assay: Inhibition of ERK1 (unknown origin) at 1 uM by KINOMEscanning assay relative to control; values are per cent of control
[5] = molecular target: T1, Mast/stem cell growth factor receptor Kit; conditions: 5 uM
Description: Inhibition of c-KIT in imatinib-resistant human HMC-1.2 cells assessed as suppression of STAT3 phosphorylation at 5 uM after 1 hr by Western immunoblotting analysis

[6] = molecular target: Mast/stem cell growth factor receptor Kit (Homo sapiens, UniProt P10721, D816V); assay: Inhibition of c-KIT D816V mutant (unknown origin)
[7] = molecular target: Focal adhesion kinase 1 (Homo sapiens) (UniProt Q05397); assay: Inhibition of FAK (unknown origin) at 1 uM by KINOMEscanning assay relative to control; values are per cent of control
[8] = system: Mast/stem cell growth factor receptor Kit (Homo sapiens), P10721 [D816H]; assay: Inhibition of c-KIT D816H mutant (unknown origin) at 1 uM by KINOMEscanning assay relative to control; values are per cent of control
[9] = molecular target: Dual specificity mitogen-activated protein kinase kinase 2 (Homo sapiens) (UniProt P36507); assay: Inhibition of MEK2 (unknown origin) at 1 uM by KINOMEscanning assay relative to control; values are per cent of control
[10] = molecular target: RAC-beta serine/threonine-protein kinase (Homo sapiens) (UniProt P31751); assay: Inhibition of AKT2 (unknown origin) at 1 uM by KINOMEscanning assay relative to control; values are per cent of control
[11] = molecular target: Rho-associated protein kinase 1 (Homo sapiens) (UniProt Q13464); assay: Inhibition of ROCK1 (unknown origin) at 1 uM by KINOMEscanning assay relative to control; values are per cent of control
[12] = molecular target: Vascular endothelial growth factor receptor 2 (Homo sapiens) (UniProt P35968); assay: Inhibition of VEGFR2 (unknown origin) at 1 uM by KINOMEscanning assay relative to control; values are per cent of control
[13] = molecular target: T2, Inhibitor of nuclear factor kappa-B kinase subunit beta (Homo sapiens) (UniProt O14920); assay: Inhibition of IKKbeta (unknown origin) at 1 uM by KINOMEscanning assay relative to control; values are per cent of control
T2 sequence (whole entry): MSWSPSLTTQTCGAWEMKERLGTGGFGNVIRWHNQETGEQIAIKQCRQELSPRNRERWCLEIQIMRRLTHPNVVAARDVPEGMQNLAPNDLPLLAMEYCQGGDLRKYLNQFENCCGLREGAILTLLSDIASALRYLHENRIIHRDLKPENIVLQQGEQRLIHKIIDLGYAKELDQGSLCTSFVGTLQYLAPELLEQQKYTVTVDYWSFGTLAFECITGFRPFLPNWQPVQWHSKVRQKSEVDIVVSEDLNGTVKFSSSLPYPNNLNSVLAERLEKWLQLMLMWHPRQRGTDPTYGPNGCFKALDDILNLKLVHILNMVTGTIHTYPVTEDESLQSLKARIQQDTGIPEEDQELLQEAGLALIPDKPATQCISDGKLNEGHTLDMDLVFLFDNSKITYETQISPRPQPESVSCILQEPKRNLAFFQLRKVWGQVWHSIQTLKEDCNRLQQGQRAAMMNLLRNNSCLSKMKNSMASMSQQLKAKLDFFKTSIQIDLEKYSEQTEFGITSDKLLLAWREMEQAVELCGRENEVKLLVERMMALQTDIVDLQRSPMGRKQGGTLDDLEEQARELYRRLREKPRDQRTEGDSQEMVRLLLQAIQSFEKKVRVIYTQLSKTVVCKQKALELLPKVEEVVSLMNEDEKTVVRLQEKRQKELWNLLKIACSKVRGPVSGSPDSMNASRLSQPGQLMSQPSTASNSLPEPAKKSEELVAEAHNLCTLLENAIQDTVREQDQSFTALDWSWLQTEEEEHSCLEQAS

[14] = molecular target: RAC-alpha serine/threonine-protein kinase (Homo sapiens) (UniProt P31749); assay: Inhibition of AKT1 (unknown origin) at 1 uM by KINOMEscanning assay relative to control; values are per cent of control
[15] = molecular target: Hepatocyte growth factor receptor (Homo sapiens) (UniProt P08581); assay: Inhibition of MET (unknown origin) at 1 uM by KINOMEscanning assay relative to control; values are per cent of control
[16] = molecular target: Tyrosine-protein kinase JAK2 (Homo sapiens) (UniProt O60674); assay: Inhibition of JAK2 (unknown origin) at 1 uM by KINOMEscanning assay relative to control; values are per cent of control
Sequence of Tyrosine-protein kinase JAK2 (Homo sapiens) (O60674 whole entry): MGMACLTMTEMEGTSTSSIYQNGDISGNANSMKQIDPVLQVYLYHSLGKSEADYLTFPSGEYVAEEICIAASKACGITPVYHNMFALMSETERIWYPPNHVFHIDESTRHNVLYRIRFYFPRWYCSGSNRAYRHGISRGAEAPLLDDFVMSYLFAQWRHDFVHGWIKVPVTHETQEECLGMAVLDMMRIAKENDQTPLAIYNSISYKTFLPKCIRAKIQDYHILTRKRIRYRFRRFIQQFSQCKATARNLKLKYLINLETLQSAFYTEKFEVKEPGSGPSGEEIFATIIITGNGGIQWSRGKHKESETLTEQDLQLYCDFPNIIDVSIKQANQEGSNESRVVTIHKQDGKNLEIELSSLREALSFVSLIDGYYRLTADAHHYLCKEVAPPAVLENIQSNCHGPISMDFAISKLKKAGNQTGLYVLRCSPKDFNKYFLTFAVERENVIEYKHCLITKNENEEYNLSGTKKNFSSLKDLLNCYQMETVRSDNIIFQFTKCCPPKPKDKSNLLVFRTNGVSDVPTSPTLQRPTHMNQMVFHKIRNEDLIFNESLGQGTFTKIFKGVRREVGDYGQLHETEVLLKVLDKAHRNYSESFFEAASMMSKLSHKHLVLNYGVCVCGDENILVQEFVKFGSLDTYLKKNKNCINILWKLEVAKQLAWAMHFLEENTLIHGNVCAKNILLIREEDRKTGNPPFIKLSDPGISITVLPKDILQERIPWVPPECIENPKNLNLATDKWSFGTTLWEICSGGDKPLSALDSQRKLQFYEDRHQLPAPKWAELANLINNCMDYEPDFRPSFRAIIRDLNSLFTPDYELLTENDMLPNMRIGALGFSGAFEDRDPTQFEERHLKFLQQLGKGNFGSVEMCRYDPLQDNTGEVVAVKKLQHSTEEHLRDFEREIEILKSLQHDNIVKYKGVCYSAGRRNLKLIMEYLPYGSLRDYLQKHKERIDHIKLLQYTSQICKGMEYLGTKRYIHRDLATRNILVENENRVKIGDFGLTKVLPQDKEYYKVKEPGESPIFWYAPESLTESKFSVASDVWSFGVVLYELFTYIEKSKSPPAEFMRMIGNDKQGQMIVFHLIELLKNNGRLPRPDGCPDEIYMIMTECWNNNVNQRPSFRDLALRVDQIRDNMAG

Sequence of RAC-beta serine/threonine-protein kinase (Homo sapiens) (P31751 whole entry): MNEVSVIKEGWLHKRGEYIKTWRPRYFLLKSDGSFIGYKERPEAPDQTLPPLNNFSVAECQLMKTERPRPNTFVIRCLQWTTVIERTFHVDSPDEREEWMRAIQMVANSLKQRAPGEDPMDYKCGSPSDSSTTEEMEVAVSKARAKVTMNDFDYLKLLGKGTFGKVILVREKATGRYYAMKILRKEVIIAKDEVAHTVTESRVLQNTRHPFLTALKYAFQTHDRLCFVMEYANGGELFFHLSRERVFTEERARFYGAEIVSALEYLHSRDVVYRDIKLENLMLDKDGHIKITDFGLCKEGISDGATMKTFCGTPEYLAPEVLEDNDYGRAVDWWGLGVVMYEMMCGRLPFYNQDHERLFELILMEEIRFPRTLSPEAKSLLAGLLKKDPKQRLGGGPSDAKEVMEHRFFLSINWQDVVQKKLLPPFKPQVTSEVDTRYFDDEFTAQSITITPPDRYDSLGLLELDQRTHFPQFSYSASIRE
Sequence of Hepatocyte growth factor receptor (Homo sapiens) (P08581 whole entry): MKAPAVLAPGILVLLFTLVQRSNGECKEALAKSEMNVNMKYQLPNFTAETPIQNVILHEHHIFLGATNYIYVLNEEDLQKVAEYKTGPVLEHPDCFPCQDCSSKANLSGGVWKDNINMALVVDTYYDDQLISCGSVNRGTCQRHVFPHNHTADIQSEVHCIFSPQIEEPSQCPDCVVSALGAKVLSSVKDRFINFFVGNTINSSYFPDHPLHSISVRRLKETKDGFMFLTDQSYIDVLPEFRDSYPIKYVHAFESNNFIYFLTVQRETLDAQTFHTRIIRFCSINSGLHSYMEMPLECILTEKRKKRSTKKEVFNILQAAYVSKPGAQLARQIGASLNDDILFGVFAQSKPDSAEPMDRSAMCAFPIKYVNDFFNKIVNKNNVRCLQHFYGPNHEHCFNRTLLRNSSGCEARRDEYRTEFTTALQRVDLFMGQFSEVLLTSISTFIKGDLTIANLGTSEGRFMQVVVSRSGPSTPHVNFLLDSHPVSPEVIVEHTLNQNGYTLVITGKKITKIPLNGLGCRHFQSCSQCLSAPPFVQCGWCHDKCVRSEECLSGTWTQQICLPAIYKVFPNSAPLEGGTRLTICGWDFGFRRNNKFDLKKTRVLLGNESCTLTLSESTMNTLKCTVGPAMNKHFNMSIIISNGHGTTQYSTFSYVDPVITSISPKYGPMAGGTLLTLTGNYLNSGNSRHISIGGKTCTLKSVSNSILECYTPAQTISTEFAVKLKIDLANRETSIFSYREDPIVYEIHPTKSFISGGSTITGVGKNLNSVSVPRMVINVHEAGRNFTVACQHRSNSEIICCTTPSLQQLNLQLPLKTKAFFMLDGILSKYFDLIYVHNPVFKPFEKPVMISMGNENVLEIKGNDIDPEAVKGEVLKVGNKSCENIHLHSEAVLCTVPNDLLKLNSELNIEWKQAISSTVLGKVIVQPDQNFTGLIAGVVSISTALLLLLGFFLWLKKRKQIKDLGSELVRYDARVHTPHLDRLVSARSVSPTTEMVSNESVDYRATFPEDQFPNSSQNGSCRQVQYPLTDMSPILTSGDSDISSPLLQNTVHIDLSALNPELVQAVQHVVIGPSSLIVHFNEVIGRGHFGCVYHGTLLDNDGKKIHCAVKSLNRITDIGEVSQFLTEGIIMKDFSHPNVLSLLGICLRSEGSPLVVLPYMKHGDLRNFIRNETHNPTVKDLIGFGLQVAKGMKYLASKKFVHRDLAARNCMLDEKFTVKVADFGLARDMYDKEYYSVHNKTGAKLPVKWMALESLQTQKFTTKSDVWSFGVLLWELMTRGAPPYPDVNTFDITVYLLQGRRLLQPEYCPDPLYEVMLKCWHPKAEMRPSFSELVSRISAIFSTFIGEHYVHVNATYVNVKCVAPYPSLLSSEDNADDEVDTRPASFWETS
Sequence of RAC-alpha serine/threonine-protein kinase (Homo sapiens) (P31749 whole entry): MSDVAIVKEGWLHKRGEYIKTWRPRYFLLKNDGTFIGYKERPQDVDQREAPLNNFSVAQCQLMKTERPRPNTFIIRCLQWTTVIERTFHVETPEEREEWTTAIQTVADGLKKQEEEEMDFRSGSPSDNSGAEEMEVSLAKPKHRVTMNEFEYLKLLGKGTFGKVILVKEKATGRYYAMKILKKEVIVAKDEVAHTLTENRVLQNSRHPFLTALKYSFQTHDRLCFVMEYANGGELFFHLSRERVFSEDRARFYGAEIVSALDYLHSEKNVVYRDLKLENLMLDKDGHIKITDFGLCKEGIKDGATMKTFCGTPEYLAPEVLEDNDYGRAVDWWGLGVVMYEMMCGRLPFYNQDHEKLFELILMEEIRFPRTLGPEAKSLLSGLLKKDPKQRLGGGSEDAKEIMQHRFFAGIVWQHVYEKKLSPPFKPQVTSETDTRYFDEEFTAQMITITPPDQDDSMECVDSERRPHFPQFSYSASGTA
Sequence of Focal adhesion kinase 1 (Homo sapiens) (Q05397 2-1052 limits assumed): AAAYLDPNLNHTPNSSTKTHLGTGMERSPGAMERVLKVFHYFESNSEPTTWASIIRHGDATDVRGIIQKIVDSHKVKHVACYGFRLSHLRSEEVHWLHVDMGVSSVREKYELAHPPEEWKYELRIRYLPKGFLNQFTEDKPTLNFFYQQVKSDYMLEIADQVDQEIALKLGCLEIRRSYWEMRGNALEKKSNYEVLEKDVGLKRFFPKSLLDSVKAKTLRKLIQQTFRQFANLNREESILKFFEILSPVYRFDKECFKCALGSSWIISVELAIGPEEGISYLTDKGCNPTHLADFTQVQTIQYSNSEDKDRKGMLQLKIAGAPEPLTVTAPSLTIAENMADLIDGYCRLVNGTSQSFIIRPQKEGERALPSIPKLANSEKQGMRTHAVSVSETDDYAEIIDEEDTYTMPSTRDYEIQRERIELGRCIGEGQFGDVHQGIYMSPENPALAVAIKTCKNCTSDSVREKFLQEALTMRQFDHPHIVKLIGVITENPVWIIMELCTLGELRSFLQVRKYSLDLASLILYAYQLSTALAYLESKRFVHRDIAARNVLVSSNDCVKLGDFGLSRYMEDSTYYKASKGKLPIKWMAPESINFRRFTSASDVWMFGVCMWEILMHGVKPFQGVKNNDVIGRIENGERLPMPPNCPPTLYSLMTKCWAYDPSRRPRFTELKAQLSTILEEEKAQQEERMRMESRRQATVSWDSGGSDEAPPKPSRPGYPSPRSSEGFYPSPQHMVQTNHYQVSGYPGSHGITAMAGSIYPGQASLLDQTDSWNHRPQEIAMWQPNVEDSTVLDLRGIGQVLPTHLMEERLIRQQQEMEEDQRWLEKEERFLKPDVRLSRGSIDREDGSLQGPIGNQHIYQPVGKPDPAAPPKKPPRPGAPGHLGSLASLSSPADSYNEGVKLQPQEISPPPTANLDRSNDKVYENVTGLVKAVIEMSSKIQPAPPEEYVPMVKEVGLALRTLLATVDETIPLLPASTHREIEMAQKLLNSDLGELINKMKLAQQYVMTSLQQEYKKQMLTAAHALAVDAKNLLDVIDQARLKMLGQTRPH
Sequence of Mitogen-activated protein kinase 3 (Homo sapiens) (P27361 whole entry): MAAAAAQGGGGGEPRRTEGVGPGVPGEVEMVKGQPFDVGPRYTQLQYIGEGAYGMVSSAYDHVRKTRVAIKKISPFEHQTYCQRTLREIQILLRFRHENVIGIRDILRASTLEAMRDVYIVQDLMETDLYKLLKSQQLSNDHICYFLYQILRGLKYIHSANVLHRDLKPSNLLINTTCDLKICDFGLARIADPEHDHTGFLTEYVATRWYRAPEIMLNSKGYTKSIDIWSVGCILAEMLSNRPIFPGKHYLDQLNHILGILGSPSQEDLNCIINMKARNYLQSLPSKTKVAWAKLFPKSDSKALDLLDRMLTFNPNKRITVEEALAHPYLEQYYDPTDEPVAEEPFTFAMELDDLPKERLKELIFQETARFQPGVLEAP

| SMILES | residual activity [1] | residual activity [2] | residual activity [3] | residual activity [4] | inhibition [5] | IC50 [6] | residual activity [7] | residual activity [8] | residual activity [9] | residual activity [10] | residual activity [11] | residual activity [12] | residual activity [13] | residual activity [14] | residual activity [15] | residual activity [16] |
| --- | --- | --- | --- | --- | --- | --- | --- | --- | --- | --- | --- | --- | --- | --- | --- | --- |
| COc1cc(-c2c[nH]c3ncc(-c4cccc(N)c4)cc23)cc(OC)c1OC | 53% | 53% | 9.8% | 23% | Active | 97.7 nM | 92% | 85% | 74% | 100% | 94% | 96% | 22% | 87% | 35% | 78% |
| COc1ccc(-c2c[nH]c3ncc(-c4ccc(C(=O)N5CCOCC5)c(N)c4)cc23)cc1OC | 76% | 62% | 51% | 100% | – | 8.5 nM | 88% | 25% | 72% | 97% | 16% | 79% | 0.75% | 100% | 54% | 3.2% |
| COc1ccc(-c2c[nH]c3ncc(-c4cc(OC)c(OC)c(OC)c4)cc23)cc1OC | 42% | 61% | 19% | 88% | Active | 8.8 nM | 92% | 25% | 93% | 100% | 66% | 97% | 69% | 98% | 54% | 48% |

The next lines start with the values.

| residual activity [1] | residual activity [2] | residual activity [3] | residual activity [4] | inhibition [5] | IC50 [6] | residual activity [7] | residual activity [8] | residual activity [9] | residual activity [10] | residual activity [11] | residual activity [12] | residual activity [13] | residual activity [14] | residual activity [15] | residual activity [16] | SMILES |
| --- | --- | --- | --- | --- | --- | --- | --- | --- | --- | --- | --- | --- | --- | --- | --- | --- |
| 48% | 63% | 0.8% | 93% | Active | 2.1 nM | 88% | 16% | 92% | 100% | 33% | 96% | 12% | 100% | 34% | 49% | COc1ccc(-c2cnc3[nH]cc(-c4ccc(OC)c(OC)c4)c3c2)cc1OC |
| 65% | 71% | 37% | 88% | Active | 25.6 nM | 93% | 51% | 90% | 100% | 16% | 79% | 31% | 92% | 47% | 46% | COc1ccc(-c2cnc3[nH]cc(-c4ccc(OC)c(OC)c4)c3c2)cc1N |
